Measurements from patent US9346769B2, “Tetrazolones as inhibitors of fatty acid synthase” (Infinity Pharmaceuticals, Inc., priority 2010, dated 2016).

These compounds were tested against T1, human FASN (Homo sapiens, UniProt P49327) (assay: FASN NADPH Consumption Assay). Conditions: human FASN purified from SKBR3 cells; starred symbols.
T1 construct: was purified from SKBR3 cells using procedures modified from those in Jayakumar et al; endogenous in cells; host or cells: SKBR3 human breast cancer cells (ATCC); Endogenous enzyme purified by ammonium sulfate precipitation and a mono Q column
T1 sequence (P49327 whole entry): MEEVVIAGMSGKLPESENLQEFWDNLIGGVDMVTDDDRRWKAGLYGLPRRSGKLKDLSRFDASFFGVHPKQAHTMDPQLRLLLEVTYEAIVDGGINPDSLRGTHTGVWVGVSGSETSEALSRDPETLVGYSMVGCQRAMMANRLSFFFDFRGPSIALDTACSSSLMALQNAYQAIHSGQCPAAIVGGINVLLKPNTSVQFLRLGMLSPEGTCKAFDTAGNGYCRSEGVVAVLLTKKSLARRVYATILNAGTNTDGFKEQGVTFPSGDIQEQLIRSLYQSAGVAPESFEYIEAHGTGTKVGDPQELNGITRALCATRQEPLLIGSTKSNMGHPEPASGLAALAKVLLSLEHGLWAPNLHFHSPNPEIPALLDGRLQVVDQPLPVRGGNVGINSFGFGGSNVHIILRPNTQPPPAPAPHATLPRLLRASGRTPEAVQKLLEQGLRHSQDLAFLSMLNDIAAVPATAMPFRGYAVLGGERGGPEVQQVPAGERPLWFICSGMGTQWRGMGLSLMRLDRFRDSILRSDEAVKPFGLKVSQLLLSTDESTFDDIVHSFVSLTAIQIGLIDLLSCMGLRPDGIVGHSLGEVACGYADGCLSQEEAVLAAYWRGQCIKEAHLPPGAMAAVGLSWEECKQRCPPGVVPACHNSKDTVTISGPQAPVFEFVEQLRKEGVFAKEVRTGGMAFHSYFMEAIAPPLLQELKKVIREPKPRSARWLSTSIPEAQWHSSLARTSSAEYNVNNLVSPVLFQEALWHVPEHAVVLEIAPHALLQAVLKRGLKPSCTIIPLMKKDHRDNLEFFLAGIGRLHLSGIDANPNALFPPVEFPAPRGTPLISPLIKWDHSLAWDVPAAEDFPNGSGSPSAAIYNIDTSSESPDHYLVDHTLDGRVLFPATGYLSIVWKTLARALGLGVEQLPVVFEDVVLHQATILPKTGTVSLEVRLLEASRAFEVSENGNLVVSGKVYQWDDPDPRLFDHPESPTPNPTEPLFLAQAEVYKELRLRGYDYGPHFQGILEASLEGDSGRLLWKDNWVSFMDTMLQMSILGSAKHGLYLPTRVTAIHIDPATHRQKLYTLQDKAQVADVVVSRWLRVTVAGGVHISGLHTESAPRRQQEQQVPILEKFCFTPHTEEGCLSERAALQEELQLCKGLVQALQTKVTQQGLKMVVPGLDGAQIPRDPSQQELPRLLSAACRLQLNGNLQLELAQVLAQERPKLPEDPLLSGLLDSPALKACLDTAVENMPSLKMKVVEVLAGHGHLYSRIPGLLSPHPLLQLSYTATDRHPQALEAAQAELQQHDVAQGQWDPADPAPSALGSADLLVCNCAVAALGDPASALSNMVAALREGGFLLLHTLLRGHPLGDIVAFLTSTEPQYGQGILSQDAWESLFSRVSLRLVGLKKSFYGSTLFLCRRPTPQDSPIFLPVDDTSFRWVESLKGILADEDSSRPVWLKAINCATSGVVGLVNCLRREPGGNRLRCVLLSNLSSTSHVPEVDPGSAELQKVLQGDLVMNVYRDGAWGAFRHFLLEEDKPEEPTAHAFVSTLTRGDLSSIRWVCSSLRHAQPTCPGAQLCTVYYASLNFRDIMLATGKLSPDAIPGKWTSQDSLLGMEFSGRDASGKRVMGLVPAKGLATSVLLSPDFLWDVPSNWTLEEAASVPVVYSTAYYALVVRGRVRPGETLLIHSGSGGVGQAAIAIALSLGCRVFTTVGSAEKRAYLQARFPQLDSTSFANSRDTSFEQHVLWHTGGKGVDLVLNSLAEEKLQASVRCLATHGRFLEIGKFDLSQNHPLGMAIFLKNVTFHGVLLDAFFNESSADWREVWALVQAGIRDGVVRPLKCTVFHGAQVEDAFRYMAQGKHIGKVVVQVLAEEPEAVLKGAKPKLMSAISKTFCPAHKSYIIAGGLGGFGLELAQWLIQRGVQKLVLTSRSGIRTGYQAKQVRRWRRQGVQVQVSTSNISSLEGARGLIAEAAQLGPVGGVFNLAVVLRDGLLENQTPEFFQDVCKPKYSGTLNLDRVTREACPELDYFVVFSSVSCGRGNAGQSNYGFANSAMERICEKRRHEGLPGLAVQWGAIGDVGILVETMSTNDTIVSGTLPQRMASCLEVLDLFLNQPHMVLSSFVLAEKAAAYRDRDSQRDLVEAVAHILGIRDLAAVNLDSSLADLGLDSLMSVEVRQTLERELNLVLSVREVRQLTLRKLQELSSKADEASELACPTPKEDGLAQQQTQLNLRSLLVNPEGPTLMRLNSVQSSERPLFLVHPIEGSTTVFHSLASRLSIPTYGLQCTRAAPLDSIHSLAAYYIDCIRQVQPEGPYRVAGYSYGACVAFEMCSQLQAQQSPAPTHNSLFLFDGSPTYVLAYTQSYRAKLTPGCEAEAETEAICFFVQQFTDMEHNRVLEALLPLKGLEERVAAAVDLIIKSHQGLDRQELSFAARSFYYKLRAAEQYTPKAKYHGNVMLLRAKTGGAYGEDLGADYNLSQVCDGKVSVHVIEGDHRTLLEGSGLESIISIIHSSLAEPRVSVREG
Assay type: biochemical
Outline: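 Native human FASN purified from SKBR3 cells (60 nM final) preincubated 30 min at 37 °C with compound (2.4 nM–40 μM, 4% DMSO) in pH 7.0 phosphate buffer with 5 mM DTT. Reaction started with 0.2 mM NADPH, 50 μM butyryl-CoA, 0.5 mM malonyl-CoA; NADPH consumption followed kinetically by fluorescence (ex 340/em 460 nm); IC50 from logistic fit.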

| IC50 | SMILES |
| --- | --- |
| 1000 to 10000 nM | CCNC(=O)N1CCC(N(CC)C(=O)n2nnn(-c3c(Cl)cccc3Cl)c2=O)CC1 |
| > 10000 nM | CCN(C(=O)n1nnn(-c2ccc(OC)cc2)c1=O)C1CCCCC1 |
| > 10000 nM | CCN(C(=O)n1nnn(-c2ccc(C(F)(F)F)cc2)c1=O)C1CCCCC1 |
| > 10000 nM | CCN(C(=O)n1nnn(-c2ccc(Cl)cc2)c1=O)C1CCCCC1 |
| 1000 to 10000 nM | CCN(C(=O)n1nnn(-c2ccc(N(C)C)cc2)c1=O)C1CCCCC1 |
| > 10000 nM | CCN(C(=O)n1nnn(-c2ccc(F)cc2)c1=O)C1CCCCC1 |
| > 10000 nM | CCN(C(=O)n1nnn(-c2cccc(F)c2)c1=O)C1CCCCC1 |
| > 10000 nM | CCN(C(=O)n1nnn(-c2cccc(OC)c2)c1=O)C1CCCCC1 |
| 1000 to 10000 nM | CCN(C(=O)n1nnn(-c2cccs2)c1=O)C1CCCCC1 |
| > 10000 nM | CCN(C(=O)n1nnn(-c2ccsc2)c1=O)C1CCCCC1 |
| > 10000 nM | CCN(C(=O)n1nnn(-c2c(C)nn(C)c2C)c1=O)C1CCCCC1 |
| > 10000 nM | CCN(C(=O)n1nnn(-c2c(C)noc2C)c1=O)C1CCCCC1 |
| 1000 to 10000 nM | CC(C)(C)OC(=O)N(C(=O)n1nnn(-c2c(F)cccc2F)c1=O)c1ccco1 |

Each compound was assayed against T1, human FASN (assay: FASN Scintillation Proximity Flashplate Assay). Conditions: human FASN purified from SKBR3 cells; unstarred symbols.
Assay type: biochemical
Procedure: Human FASN protein (SEQ ID NO. 1) was purified from SKBR3 cells using procedures modified from those in Jayakumar et al. PNAS 1995, 92:8695-8699. SKBR3 cells were obtained from ATCC and grown in DMEM high glucose medium supplemented with 10% FBS, 1 μg/mL bovine pancreas insulin, 100 U/mL penicillin and 100 µg/mL streptomycin. The confluent cells were trypsinized and washed three times with PBS buffer before frozen in liquid N2 and stored at −80° C. Frozen cells were thawed on ice and resuspended in lysis buffer (25 mM Tris-HCl, pH 7.0, 15 mM NaCl, 1 mM EDTA, and 1 mM DTT) with protease inhibitors. The cells were lysed by sonication, and the cell debris was removed by centrifugation at 20,000 rpm for 30 min. To the supernatant, neutralized saturated ammonium sulfate solution was added to a final concentration of 35%. The solution was left on ice for 1 hr, and the precipitated proteins were harvested by centrifugation at 20,000 rpm for 30 min. The proteins were redissolved in lysis buffer without NaCl and loaded on a mono Q column. Bound proteins were eluted with a linear gradient of NaCl in lysis buffer. Each fraction was analyzed by SDS-PAGE and FASN NADPH consumption assay. The fractions containing FASN were pooled and concentrated to 2-3 mg/mL. Glycerol was added to 20%, and the protein was frozen in liquid N2 and stored at −80° C.
Acetyl-coenzyme A, malonyl-coenzyme A, NADPH, bovine gamma globulin, and ORLISTAT were purchased from Sigma (St. Louis, Mo.). Tris(2-carboxyethyl) phosphine hydrochloride (TCEP) was purchased from Pierce Biotechnologies (Rockford, Ill.). [^3H]-acetyl-coenzyme A was purchased from Moravek Biochemicals (Brea, CA). FlashPlate™ PLUS phospholipid 96-well scintillant coated microplates were purchased from Perkin Elmer Life and Analytical Sciences (Shelton, CT). The method of the FASN Scintillation Proximity FlashPlate assay is similar to that described in Weiss and Glickman Assay Drug Dev Technol 2003, 1:161-6. In a 96-well polypropylene microplate, a dilution series (typical concentrations 60 nM-1.0 mM) of test compounds were prepared in DMSO followed by a 20-fold dilution into FASN assay buffer (50 mM potassium phosphate, pH 7.0, 1.0 mM EDTA, 0.01% NP-40), of which 5.0 μL each was transferred to a FlashPlate® PLUS 96-well plate and mixed with 35 μL FASN assay buffer plus 0.5 mg/mL bovine gamma globulin and 1 mM TCEP. FASN protein (10 μL, 10 nM) was added per well, and the microplate was incubated at 37° C. for 30 min. 10 μL of 20 mM NADPH was added, and the reaction was initiated by addition of […] substrate mixture to final concentrations of 1 nM FASN, 100 μM acetyl-coenzyme A, 6 μCi [^3H]-acetyl-coenzyme A, 300 μM malonyl-coenzyme A, 2 mM NADPH, 0.5 mg/mL bovine gamma globulin, and 1 mM TCEP in a volume of 100 μL per well. Assay plates were incubated for 2 hr at 37° C. and the reaction was stopped with 2 μL of 2.5 mM stock solution of ORLISTAT in DMSO to ˜50 μM. The plates were read in a Wallac 1450 Microbeta Plus liquid scintillation counter (Perkin Elmer, Waltham, Mass.), and counts per minute (CPM) were collected over 2 min. Each inhibitor well CPM was compared to the maximum FASN enzyme activity (Max) CPM and the background (Min) CPM, as measured by omission of FASN enzyme in the background well. % Inhibition values were calculated, and curves were fitted by a four-parameter logistic function to yield IC50 values:
Compounds were assayed as inhibitors of human FASN using the above-described FASN Scintillation Proximity Flashplate Assay (IC50; nM) or FASN NADPH Consumption Assay (*) (IC50; nM). The corresponding activity of the isolated compound is also provided along with the measured mass (ES^+).

| SMILES | IC50 |
| --- | --- |
| COc1ccc(N(C(=O)n2nnn(-c3ccccc3C#N)c2=O)C2CCCCC2)cc1C(=O)O | 100 to 200 nM |
| CCN(C(=O)n1nnn(-c2ccccc2Oc2ccccc2)c1=O)c1ccc(C(=O)O)cc1 | < 15 nM |
| CCN(C(=O)n1nnn(-c2c(F)cccc2F)c1=O)c1ccc(F)cc1F | < 15 nM |
| CCN(C(=O)n1nnn(-c2c(F)cccc2F)c1=O)c1cc(C(=O)O)ccc1OC(C)C | 15 to 100 nM |
| CCNC(=O)Nc1ccc(N(CC)C(=O)n2nnn(-c3c(F)cccc3F)c2=O)c(F)c1 | < 15 nM |
| CCN(C(=O)n1nnn(-c2c(F)cccc2F)c1=O)c1ccc(N)cc1F | < 15 nM |
| CCN(C(=O)n1nnn(-c2c(F)cccc2F)c1=O)c1ccc(NC(C)=O)cc1F | < 15 nM |
| CCN(C(=O)n1nnn(-c2c(F)cccc2F)c1=O)c1cc(C(=O)O)ccc1OCCc1ccccc1 | < 15 nM |
| CCN(C(=O)n1nnn(-c2c(F)cccc2F)c1=O)c1c(F)cccc1F | < 15 nM |
| CCCCOc1ccc(C(=O)O)cc1N(CC)C(=O)n1nnn(-c2c(F)cccc2F)c1=O | < 15 nM |
| CCN(C(=O)n1nnn(-c2c(F)cccc2F)c1=O)c1ccccc1F | < 15 nM |
| CCN(C(=O)n1nnn(-c2c(F)cccc2F)c1=O)c1ccc(NS(C)(=O)=O)cc1F | < 15 nM |
| CCN(C(=O)n1nnn(-c2c(F)cccc2F)c1=O)c1ccc(C(=O)O)cc1Oc1ccccc1 | < 15 nM |
| CCN(C(=O)n1nnn(-c2c(F)cccc2F)c1=O)c1ccccc1Oc1ccccc1 | < 15 nM |
| CCN(C(=O)n1nnn(-c2c(F)cccc2F)c1=O)c1ccc(OC)c(C(=O)O)c1 | 15 to 100 nM |
| CCN(C(=O)n1nnn(-c2c(F)cccc2F)c1=O)c1ccc(C(=O)O)c(OC)c1 | < 15 nM |
| CCNC(=O)N1CCN(c2ccc(N(C(=O)n3nnn(-c4c(F)cccc4F)c3=O)C3CCCCC3)cc2C(=O)O)CC1 | < 15 nM |
| CCOC(=O)N1CCN(c2ccc(N(C(=O)n3nnn(-c4c(F)cccc4F)c3=O)C3CCCCC3)cc2C(=O)O)CC1 | < 15 nM |
| O=C(O)c1cc(N(C(=O)n2nnn(-c3c(F)cccc3F)c2=O)C2CCCCC2)ccc1OC(=O)N1CCOCC1 | < 15 nM |
| CS(=O)(=O)N1CCN(c2ccc(N(C(=O)n3nnn(-c4c(F)cccc4F)c3=O)C3CCCCC3)cc2C(=O)O)CC1 | < 15 nM |
| CC(=O)N1CCN(c2ccc(N(C(=O)n3nnn(-c4c(F)cccc4F)c3=O)C3CCCCC3)cc2C(=O)O)CC1 | < 15 nM |
| CCN1CCN(c2ccc(N(C(=O)n3nnn(-c4c(F)cccc4F)c3=O)C3CCCCC3)cc2C(=O)O)CC1 | 15 to 100 nM |
| CC(C)(C)OC(=O)N1CCN(c2ccc(N(C(=O)n3nnn(-c4c(F)cccc4F)c3=O)C3CCCCC3)cc2C(=O)O)CC1 | < 15 nM |
| O=C(O)c1cc(N(C(=O)n2nnn(-c3c(F)cccc3F)c2=O)C2CCCCC2)ccc1N1CCOCC1 | 15 to 100 nM |
| O=C(O)c1cc(N(C(=O)n2nnn(-c3c(F)cccc3F)c2=O)C2CCCCC2)cc2c1OCC2 | < 15 nM |

Further lines, results first:

| IC50 | SMILES |
| --- | --- |
| < 15 nM | COc1ccc(N(C(=O)n2nnn(-c3c(F)cccc3F)c2=O)C(C)C)cc1C(=O)OCc1ccccc1 |
| < 15 nM | O=C(O)COc1ccc(N(C(=O)n2nnn(-c3c(F)cccc3F)c2=O)C2CCCCC2)cc1 |
| < 15 nM | O=C(O)[C@@H]1CCCN1c1ccc(N(C(=O)n2nnn(-c3c(F)cccc3F)c2=O)C2CCCCC2)cc1 |
| < 15 nM | COc1ccc(C(=O)OCc2ccccc2)cc1N(CCCc1ccccc1)C(=O)n1nnn(-c2c(F)cccc2F)c1=O |
| < 15 nM | O=C(N(c1ccccc1)C1CCCCC1)n1nnn(-c2c(F)cccc2F)c1=O |
| < 15 nM | CCOC(=O)c1cc(C)n(-c2ccc(N(C(=O)n3nnn(-c4c(F)cccc4F)c3=O)C3CCCCC3)cc2C(=O)O)n1 |
| < 15 nM | CCOC(=O)c1cc(C)n(-c2ccc(N(C(=O)n3nnn(-c4c(F)cccc4F)c3=O)C3CCCCC3)cc2C(=O)OCc2ccccc2)n1 |
| < 15 nM | COc1ccc(N(C(=O)n2nnn(-c3c(F)cccc3F)c2=O)C2CCCCC2)cc1C(=O)NC(C)(C)C(=O)O |
| < 15 nM | CNC(=O)c1cc(N(C(=O)n2nnn(-c3c(F)cccc3F)c2=O)C2CCCCC2)ccc1OC |
| < 15 nM | Cc1ccc(C)n1-c1ccc(N(C(=O)n2nnn(-c3c(F)cccc3F)c2=O)C2CCCCC2)cc1C(=O)O |
| < 15 nM | COC(=O)c1cc(N(C(=O)n2nnn(-c3c(F)cccc3F)c2=O)C2CCCCC2)ccc1OC |
| < 15 nM | COCCOc1ccc(N(C(=O)n2nnn(-c3c(F)cccc3F)c2=O)C2CCCCC2)cc1C(=O)O |
| < 15 nM | COc1ccc(N(C(=O)n2nnn(-c3c(F)cccc3F)c2=O)C2CCCCC2)cc1C(=O)N(C)C |
| < 15 nM | COc1ccc(N(C(=O)n2nnn(-c3c(F)cccc3F)c2=O)C2CCCCC2)cc1C(N)=O |
| < 15 nM | CC(C)(C)OC(=O)N1CCN(c2ccc(N(C(=O)n3nnn(-c4c(F)cccc4F)c3=O)C3CCCCC3)cc2C(=O)OCc2ccccc2)CC1 |
| < 15 nM | COc1cc(OC)c(N(C(=O)n2nnn(-c3c(F)cccc3F)c2=O)C2CCCCC2)cc1C(=O)O |
| < 15 nM | CN(C)c1ccc(N(C(=O)n2nnn(-c3c(F)cccc3F)c2=O)C2CCCCC2)cc1C(=O)O |
| < 15 nM | O=C(OCc1ccccc1)c1cc(N(C(=O)n2nnn(-c3c(F)cccc3F)c2=O)C2CCCCC2)ccc1NCc1ccccc1 |
| 15 to 100 nM | COc1ccc(N(C(=O)n2nnn(-c3c(F)cccc3F)c2=O)C2CCCCC2)c(OC)c1C(=O)O |
| < 15 nM | COCCOCOc1ccc(N(C(=O)n2nnn(-c3c(F)cccc3F)c2=O)C2CCCCC2)cc1C(=O)O |
| < 15 nM | COc1ccc(N(C(=O)n2nnn(-c3c(F)cccc3F)c2=O)C2CCCCC2)c(OC)c1C(=O)OCc1ccccc1 |
| < 15 nM | COCCOCOc1ccc(N(C(=O)n2nnn(-c3c(F)cccc3F)c2=O)C2CCCCC2)cc1C(=O)OCc1ccccc1 |
| < 15 nM | Nc1ccc(N(C(=O)n2nnn(-c3c(F)cccc3F)c2=O)C2CCCCC2)cc1C(=O)O |
| < 15 nM | CC(C)(C)OC(=O)Nc1ccc(N(C(=O)n2nnn(-c3c(F)cccc3F)c2=O)C2CCCCC2)cc1C(=O)O |
